{"source": "patent EP2687213B1", "about": "“Solid forms comprising (+)-2-[1-(3-ethoxy-4-methoxyphenyl)-2-methylsulfonylethyl]-4-acetylaminoisoindoline-1,3-dione, compositions thereof, and uses thereof” (CELGENE CORPORATION, priority 2008, dated 2009)", "key": {"[1]": {"target": "human PDE2 (Homo sapiens, UniProt O00408)", "sequence (O00408 whole entry)": "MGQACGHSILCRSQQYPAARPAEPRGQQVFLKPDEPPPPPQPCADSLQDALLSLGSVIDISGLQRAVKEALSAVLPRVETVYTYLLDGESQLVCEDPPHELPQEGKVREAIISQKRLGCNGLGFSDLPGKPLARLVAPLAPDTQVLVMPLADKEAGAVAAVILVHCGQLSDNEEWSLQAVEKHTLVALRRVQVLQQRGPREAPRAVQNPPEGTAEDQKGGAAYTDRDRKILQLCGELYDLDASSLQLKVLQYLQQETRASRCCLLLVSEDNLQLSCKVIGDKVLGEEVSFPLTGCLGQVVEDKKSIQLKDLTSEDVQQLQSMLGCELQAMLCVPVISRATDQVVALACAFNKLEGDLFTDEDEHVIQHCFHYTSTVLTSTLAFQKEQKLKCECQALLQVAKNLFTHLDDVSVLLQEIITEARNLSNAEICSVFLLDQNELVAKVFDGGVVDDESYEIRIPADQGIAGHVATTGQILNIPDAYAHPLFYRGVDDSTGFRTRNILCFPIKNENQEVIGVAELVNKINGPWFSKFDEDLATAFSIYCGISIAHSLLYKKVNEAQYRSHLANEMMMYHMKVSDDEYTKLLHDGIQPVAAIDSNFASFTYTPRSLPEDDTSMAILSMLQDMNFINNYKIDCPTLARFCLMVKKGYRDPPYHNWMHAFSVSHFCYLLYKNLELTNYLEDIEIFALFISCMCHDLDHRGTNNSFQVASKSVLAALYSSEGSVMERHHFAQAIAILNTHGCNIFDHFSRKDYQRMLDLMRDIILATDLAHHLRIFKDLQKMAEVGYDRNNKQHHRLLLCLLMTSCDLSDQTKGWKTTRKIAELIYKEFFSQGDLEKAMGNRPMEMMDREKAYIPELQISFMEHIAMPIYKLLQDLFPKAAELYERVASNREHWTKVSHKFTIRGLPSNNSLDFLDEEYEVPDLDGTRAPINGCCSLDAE", "test": "PDE2 enzyme assay", "assay_type": "biochemical", "details": "from PDE inhibition data of Table 1"}, "[2]": {"target": "T1, PDE6 from bovine retinal rod outer segments (Bos taurus, UniProt P11541+P23439)", "T1 construct": "PDE6 from bovine retinal rod outer segments; from tissue; host or cells: bovine retinal rod outer segments", "T1 sequence (P11541 2-856 limits assumed)": "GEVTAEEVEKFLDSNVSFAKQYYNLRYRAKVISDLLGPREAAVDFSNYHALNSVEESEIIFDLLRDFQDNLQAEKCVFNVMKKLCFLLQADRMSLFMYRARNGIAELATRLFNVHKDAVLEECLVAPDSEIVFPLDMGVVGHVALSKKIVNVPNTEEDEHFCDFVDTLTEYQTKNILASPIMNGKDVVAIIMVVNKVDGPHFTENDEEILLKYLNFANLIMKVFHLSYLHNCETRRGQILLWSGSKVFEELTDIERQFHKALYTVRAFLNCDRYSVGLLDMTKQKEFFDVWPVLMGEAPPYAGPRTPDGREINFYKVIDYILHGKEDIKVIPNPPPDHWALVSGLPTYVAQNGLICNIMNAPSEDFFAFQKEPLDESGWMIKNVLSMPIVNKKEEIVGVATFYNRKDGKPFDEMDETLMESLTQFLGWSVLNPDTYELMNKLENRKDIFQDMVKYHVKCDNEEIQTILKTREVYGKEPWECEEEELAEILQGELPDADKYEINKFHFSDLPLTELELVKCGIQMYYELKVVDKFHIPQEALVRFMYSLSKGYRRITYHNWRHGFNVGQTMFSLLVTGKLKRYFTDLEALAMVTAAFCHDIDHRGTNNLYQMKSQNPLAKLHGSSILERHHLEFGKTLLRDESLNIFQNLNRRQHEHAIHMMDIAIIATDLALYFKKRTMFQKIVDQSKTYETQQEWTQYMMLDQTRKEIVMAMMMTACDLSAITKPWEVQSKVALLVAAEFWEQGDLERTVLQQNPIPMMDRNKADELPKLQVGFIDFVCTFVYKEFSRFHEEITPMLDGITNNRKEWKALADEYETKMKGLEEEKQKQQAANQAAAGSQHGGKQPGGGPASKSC", "T1 sequence (P23439 2-850 limits assumed)": "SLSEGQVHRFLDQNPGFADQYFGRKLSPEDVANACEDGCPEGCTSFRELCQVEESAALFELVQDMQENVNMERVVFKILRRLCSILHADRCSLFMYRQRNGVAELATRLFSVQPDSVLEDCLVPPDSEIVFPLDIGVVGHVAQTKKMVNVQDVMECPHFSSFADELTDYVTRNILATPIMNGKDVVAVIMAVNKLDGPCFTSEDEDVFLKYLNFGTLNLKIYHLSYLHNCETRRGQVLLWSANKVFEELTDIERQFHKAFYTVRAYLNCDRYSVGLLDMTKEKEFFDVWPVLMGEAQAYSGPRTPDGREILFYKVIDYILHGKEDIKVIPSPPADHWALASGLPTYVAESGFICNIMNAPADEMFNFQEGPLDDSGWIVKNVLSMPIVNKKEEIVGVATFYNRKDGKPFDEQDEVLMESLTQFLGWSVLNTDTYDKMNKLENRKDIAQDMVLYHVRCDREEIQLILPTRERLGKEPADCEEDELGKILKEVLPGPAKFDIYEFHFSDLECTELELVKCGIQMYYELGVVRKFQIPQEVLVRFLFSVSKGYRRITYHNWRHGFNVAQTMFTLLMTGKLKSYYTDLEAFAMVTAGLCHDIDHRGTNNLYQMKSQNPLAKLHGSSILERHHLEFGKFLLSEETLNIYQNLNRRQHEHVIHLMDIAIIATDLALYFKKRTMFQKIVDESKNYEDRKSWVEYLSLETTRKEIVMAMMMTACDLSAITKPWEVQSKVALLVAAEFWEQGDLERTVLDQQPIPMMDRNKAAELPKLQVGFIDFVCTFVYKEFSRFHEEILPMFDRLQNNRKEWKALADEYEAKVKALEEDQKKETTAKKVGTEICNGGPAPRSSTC", "test": "PDE6 enzyme assay", "assay_type": "biochemical", "details": "from PDE inhibition data of Table 1"}, "[3]": {"test_system": "subjects with moderate to severe plaque-type psoriasis", "test": "Phase 2 randomized double-blind placebo-controlled study in moderate to severe plaque-type psoriasis", "assay_type": "in vivo, human", "description": "This phase 2, multicenter, randomized, double-blind, placebo-controlled, parallel-group, dose-comparison study evaluated the efficacy and safety of Compound A in subjects with moderate to severe plaque-type psoriasis who were candidates for systemic therapy.\nThis study included a 12-week treatment phase followed by a 4-week observational follow-up phase. A total of 260 subjects were randomized to receive Compound A 20 mg BID, Compound A 20 mg QD, or placebo for 12 weeks. The primary endpoint for this study was the proportion of subjects treated with Compound A who achieved a 75% reduction in Psoriasis Area and Severity Index score (\"PASI-75\") at week 12/last treatment in reference to the baseline visit. Last treatment is defined as the last PASI assessment completed during the 12-week treatment phase."}}, "data": [{"compound": "CCOc1cc(C(CS(C)(=O)=O)N2C(=O)c3cccc(NC(C)=O)c3C2=O)ccc1OC", "note": "(single isomer, unassigned; (+)) [Compound A, (+)-2-[1-(3-ethoxy-4-methoxyphenyl)-2-methylsulfonylethyl]-4-acetylaminoisoindoline-1,3-dione]", "values": [{"measurement": "PDE Specificity Ratio PDE4/PDE2", "setting": "[1]", "value": ">10000", "unit": "fold"}, {"measurement": "PDE Specificity Ratio PDE4/PDE6", "setting": "[2]", "value": ">40000", "unit": "fold"}, {"measurement": "psoriasis flare during the observational follow-up period", "setting": "[3]; 20 mg BID group, 4-week follow-up", "value": "No subjects"}, {"measurement": "study drug-related serious adverse events", "setting": "[3]; 20 mg BID or 20 mg QD, 12 weeks", "value": "No study drug-related serious adverse events were reported"}, {"measurement": "tolerability and safety (overall conclusion)", "setting": "[3]; 12 weeks of treatment", "value": "well tolerated and safe"}]}]}
